# Experimental data from the supplement of paper PMC10307832.
# Legend:
# Experiment in all cases: relative viability (nuclei count vs DMSO), 5 days (fraction); higher = more cells survive
# NCI-H2085 = tested on: NCI-H2085
# Outline: (§1)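 Five library-drug doses in √10 steps were combined with a fixed anchor-drug dose, or a single drug was given alone, by pin tool to lung cancer cell lines in 1536-well plates the day after seeding. Nuclei were stained and counted after 5 days. Relative viability is the nuclei count in treated wells over that in vehicle wells, taken as the median of duplicate plates.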
# 201T = tested on: 201T
# Outline: as §1
# LU99A = tested on: LU99A
# Outline: as §1
# BEN = tested on: BEN
# Outline: as §1
# HOP-62 = tested on: HOP-62
# Outline: as §1
# PC-3 [JPC-3] = tested on: PC-3 [JPC-3]
# Outline: as §1
# LCLC-97TM1 = tested on: LCLC-97TM1
# Outline: as §1
# NCI-H1666 = tested on: NCI-H1666
# Outline: as §1
# NCI-H1437 = tested on: NCI-H1437
# Outline: as §1
# EKVX = tested on: EKVX
# Outline: as §1
# NCI-H2087 = tested on: NCI-H2087
# Outline: as §1
# SW 1573 = tested on: SW 1573
# Outline: as §1
# NCI-H358 = tested on: NCI-H358
# Outline: as §1
# NCI-H647 = tested on: NCI-H647
# Outline: as §1
# H3255 = tested on: H3255
# Outline: as §1
# NCI-H2342 = tested on: NCI-H2342
# Outline: as §1
# LOU-NH91 = tested on: LOU-NH91
# Outline: as §1
# NCI-H1395 = tested on: NCI-H1395
# Outline: as §1
# COR-L 105 = tested on: COR-L 105
# Outline: as §1
# NCI-H1975 = tested on: NCI-H1975
# Outline: as §1
# EPLC-272H = tested on: EPLC-272H
# Outline: as §1
# HCC-827 = tested on: HCC-827
# Outline: as §1
# HCC-44 = tested on: HCC-44
# Outline: as §1
smiles,measurement,setting,value
O=C(O)c1ccc(-c2c[nH]c3ncc(-c4ccccc4)cc23)cc1C1CCCC1 + CCNC(=O)c1noc(-c2cc(C(C)C)c(O)cc2O)c1-c1ccc(CN2CCOCC2)cc1 [Luminespib] (partner 0.01 µM),relative viability,NCI-H2085; first compound 0.04 µM,0.441
same,relative viability,NCI-H2085; first compound 0.1265 µM,0.422
same,relative viability,NCI-H2085; first compound 0.4 µM,0.488
same,relative viability,NCI-H2085; first compound 1.265 µM,0.31
same,relative viability,201T; first compound 0.04 µM,1.08
same,relative viability,201T; first compound 0.1265 µM,1.04
same,relative viability,201T; first compound 0.4 µM,1.07
same,relative viability,201T; first compound 1.265 µM,0.987
same,relative viability,LU99A; first compound 0.04 µM,0.259
same,relative viability,LU99A; first compound 0.1265 µM,0.254
same,relative viability,LU99A; first compound 0.4 µM,0.244
same,relative viability,LU99A; first compound 1.265 µM,0.273
same,relative viability,BEN; first compound 0.04 µM,0.569
same,relative viability,BEN; first compound 0.1265 µM,0.32
same,relative viability,BEN; first compound 0.4 µM,0.284
same,relative viability,BEN; first compound 1.265 µM,0.306
same,relative viability,HOP-62; first compound 0.04 µM,0.989
same,relative viability,HOP-62; first compound 0.1265 µM,0.997
same,relative viability,HOP-62; first compound 0.4 µM,0.86
same,relative viability,HOP-62; first compound 1.265 µM,0.737
same,relative viability,PC-3 [JPC-3]; first compound 0.04 µM,0.678
same,relative viability,PC-3 [JPC-3]; first compound 0.1265 µM,0.761
same,relative viability,PC-3 [JPC-3]; first compound 0.4 µM,0.619
same,relative viability,PC-3 [JPC-3]; first compound 1.265 µM,0.569
same,relative viability,LCLC-97TM1; first compound 0.04 µM,0.858
same,relative viability,LCLC-97TM1; first compound 0.1265 µM,0.82
same,relative viability,LCLC-97TM1; first compound 0.4 µM,0.633
same,relative viability,LCLC-97TM1; first compound 1.265 µM,0.5
same,relative viability,NCI-H1666; first compound 0.04 µM,0.976
same,relative viability,NCI-H1666; first compound 0.1265 µM,0.97
same,relative viability,NCI-H1666; first compound 0.4 µM,0.959
same,relative viability,NCI-H1666; first compound 1.265 µM,0.579
same,relative viability,NCI-H1437; first compound 0.04 µM,1.09
same,relative viability,NCI-H1437; first compound 0.1265 µM,1.07
same,relative viability,NCI-H1437; first compound 0.4 µM,0.925
same,relative viability,NCI-H1437; first compound 1.265 µM,0.603
same,relative viability,EKVX; first compound 0.04 µM,0.885
same,relative viability,EKVX; first compound 0.1265 µM,0.92
same,relative viability,EKVX; first compound 0.4 µM,0.931
same,relative viability,EKVX; first compound 1.265 µM,0.615
same,relative viability,NCI-H2087; first compound 0.04 µM,0.182
same,relative viability,NCI-H2087; first compound 0.1265 µM,0.192
same,relative viability,NCI-H2087; first compound 0.4 µM,0.221
same,relative viability,NCI-H2087; first compound 1.265 µM,0.164
same,relative viability,SW 1573; first compound 0.04 µM,0.563
same,relative viability,SW 1573; first compound 0.1265 µM,0.486
same,relative viability,SW 1573; first compound 0.4 µM,0.292
same,relative viability,SW 1573; first compound 1.265 µM,0.383
same,relative viability,NCI-H358; first compound 0.04 µM,0.45
same,relative viability,NCI-H358; first compound 0.1265 µM,0.192
same,relative viability,NCI-H358; first compound 0.4 µM,0.249
same,relative viability,NCI-H358; first compound 1.265 µM,0.165
same,relative viability,NCI-H647; first compound 0.04 µM,0.148
same,relative viability,NCI-H647; first compound 0.1265 µM,0.152
same,relative viability,NCI-H647; first compound 0.4 µM,0.18
same,relative viability,NCI-H647; first compound 1.265 µM,0.16
same,relative viability,H3255; first compound 0.04 µM,0.978
same,relative viability,H3255; first compound 0.1265 µM,0.983
same,relative viability,H3255; first compound 0.4 µM,0.855
same,relative viability,H3255; first compound 1.265 µM,0.778
same,relative viability,NCI-H2342; first compound 0.04 µM,0.773
same,relative viability,NCI-H2342; first compound 0.1265 µM,0.715
same,relative viability,NCI-H2342; first compound 0.4 µM,0.758
same,relative viability,NCI-H2342; first compound 1.265 µM,0.678
same,relative viability,LOU-NH91; first compound 0.04 µM,0.323
same,relative viability,LOU-NH91; first compound 0.1265 µM,0.33
same,relative viability,LOU-NH91; first compound 0.4 µM,0.278
same,relative viability,LOU-NH91; first compound 1.265 µM,0.472
same,relative viability,NCI-H1395; first compound 0.04 µM,0.726
same,relative viability,NCI-H1395; first compound 0.1265 µM,0.636
same,relative viability,NCI-H1395; first compound 0.4 µM,0.534
same,relative viability,NCI-H1395; first compound 1.265 µM,0.606
same,relative viability,COR-L 105; first compound 0.04 µM,0.933
same,relative viability,COR-L 105; first compound 0.1265 µM,0.76
same,relative viability,COR-L 105; first compound 0.4 µM,0.762
same,relative viability,COR-L 105; first compound 1.265 µM,0.773
same,relative viability,NCI-H1975; first compound 0.04 µM,0.131
same,relative viability,NCI-H1975; first compound 0.1265 µM,0.302
same,relative viability,NCI-H1975; first compound 0.4 µM,0.199
same,relative viability,NCI-H1975; first compound 1.265 µM,0.338
same,relative viability,EPLC-272H; first compound 0.04 µM,0.628
same,relative viability,EPLC-272H; first compound 0.1265 µM,0.367
same,relative viability,EPLC-272H; first compound 0.4 µM,0.21
same,relative viability,EPLC-272H; first compound 1.265 µM,0.0951
same,relative viability,HCC-827; first compound 0.04 µM,0.602
same,relative viability,HCC-827; first compound 0.1265 µM,0.793
same,relative viability,HCC-827; first compound 0.4 µM,0.413
same,relative viability,HCC-827; first compound 1.265 µM,0.485
same,relative viability,HCC-44; first compound 0.04 µM,1.08
same,relative viability,HCC-44; first compound 0.1265 µM,1.44
same,relative viability,HCC-44; first compound 0.4 µM,0.868
same,relative viability,HCC-44; first compound 1.265 µM,0.448
